Measured values as given in US5693650A, “4-(Quinolin-2-yl-methoxy)-phenyl-acetic acid derivatives” (Bayer Aktiengesellschaft, priority 1994, dated 1997).

Each molecule was assayed on ApoB-100-associated lipoproteins (assay: Inhibition of the release of ApoB-100-associated lipoproteins from liver cells (HepG2), immunoassay for human LDL). Conditions: release of ApoB-100-associated particles into HepG2 culture supernatant, 50% inhibition of light adsorption at 450 nm vs solvent control.
Type: cell-based
Protocol: The test for detection of the inhibition of the release of ApoB-100-associated lipoproteins from liver cells was carried out in vitro with cultured liver cells, preferably with cells of the human line HepG2. These cells are grown under standard conditions in a medium for culture of eukaryotic cells, preferably in RPMI 1640, with 10% of foetal calf serum. HepG2 cells synthesize and secrete into the culture supernatant ApoB-100-associated lipoprotein particles, which in principle are built up in a similar manner to the VLDL and LDL particles which are to be found in the plasma.
These particles can be detected with an immunoassay for human LDL. This immunoassay is carried out with antibodies which have been induced against human LDL in the rabbit under standard conditions. The anti-LDL antibodies (rab-anti-LDL-ab) were purified by affinity chromatography on an immunosorbent with human LDL. These purified rab-anti-LDL-ab are adsorbed onto the surface of plastic. This adsorption is expediently carried out on the plastic surface of microtiter plates having 96 wells, preferably on MaxiSorp plates (Nunc). If ApoB-100-associated particles are present in the supernatant of HepG2 cells, these can bind to the insolubilized rab-anti-LDL-ab, and an immune complex which is bonded to the plastic surface is formed. Non-bonded proteins are removed by washing. The immune complex on the plastic surface is detected with monoclonal antibodies, which had been induced against human LDL according to standard conditions and purified. These antibodies were conjugated with the enzyme peroxidase (Boehringer, Mannheim). Peroxidase converts the colourless substrate TMB (Kirkegaard and Perry) into a coloured product in the presence of H2 O2. After acidification of the reaction mixture with H2 SO4, the specific light adsorption at 450 nm, which is a measure of the amount of ApoB-100-associated particles which had been secreted into the culture supernatant by the HepG2 cells, is determined.
The IC50 value indicates the concentration of substance at which the light adsorption is inhibited by 50% in comparison with the control (solvent control without substance).

| IC50 | SMILES |
| --- | --- |
| 130 nM | O=C([C@H](c1ccc(OCc2ccc3ccccc3n2)cc1)C1CCCCCC1)N(CCO)c1ccccc1 [Example 127] |
| 250 nM | O=C(NC(CO)c1cccs1)C(c1ccc(OCc2ccc3ccccc3n2)cc1)C1CCCC1 (stereo not shown) [Example 53] |
| 500 nM | O=C(NC(CO)c1cccc(F)c1)C(c1ccc(OCc2ccc3ccccc3n2)cc1)C1CCCC1 (stereo not shown) [Example 15] |
| 20 nM | O=C(NCc1ccccc1)[C@H](c1ccc(OCc2ccc3ccccc3n2)cc1)C1CCCCCC1 [Example 141] |
